US8106004B2, “Methods of inhibiting tumor cell aggressiveness using the microenvironment of human embryonic stem cells” (Children's Memorial Hospital, priority 2006, dated 2012)

What was measured:
[1] = system: C8161 human cutaneous melanoma cells; experiment: In vivo tumor formation, orthotopic mouse model, C8161 melanoma cells; settings: for tumorigenicity / tumor formation: 250,000 C8161 cells treated with Morpholino before subcutaneous injection, n=5, p<0.05
Procedure: A microenvironment of human embryonic stem cells (H9 CMTX) was prepared as described above. C8161 human cutaneous melanoma cells were exposed to the H9 CMTX or Matrigel for 3 to 4 days prior to transplantation in a mouse model. Nude immunocompromised mice received an injection of the C8161 cells subcutaneously into the midscapular region (to mimic spontaneous metastatic dissemination found in human cancers). The animals were injected using a 25 or 27-gauge needle with 2.5×10^5 tumor cells/mouse in 0.05 ml RPMI media.
As a corollary to these findings, an orthotopic mouse model was used to examine the effect of Nodal inhibition on melanoma tumor formation. For the experimental tumourigenesis model, 5 week old nude mice (Harlan, Madison, Wis.) were injected subcutaneously with 250,000 C8161 cells, treated with control or anti-Nodal Morpholinos, in 50 μL of complete RPMI. Tumor measurements were taken on days 3, 7, 14 and 17 post-injection, and mice were sacrificed on day 17. For the orthotopic mouse tumor formation studies, statistical significance was determined using the Kruskal-Wallis One Way Analysis of Variance on Ranks, followed by Dunn's method.
The derivation and phenotypic characteristics of the human melanoma cell lines have been previously described. Seftor, et. al., 2002, Clin. Experim. Metastas. 19:233-246; Seftor, et. al., 2005 Cancer Res. 65:10164-10169. The melanoma cell lines are maintained in RPMI 1640 medium (Invitrogen) supplemented with 10% fetal bovine serum (FBS, Gemini Bioproducts) and 0.1% gentamycin sulfate with the exception of C81-61 cells which are maintained in Ham's FIO medium supplemented with 15% FBS, 1X Mito+ (BD Bioscience) and gentamycin sulfate. Normal human melanocytes are purchased (Cascade Biologics) or isolated from neonatal foreskins. Seftor, et. al., 2005. A single cell suspension is prepared, added to plastic flasks for the adherence of melanocytes and the cells propagated in Medium 254 with Human Melanocyte Growth Supplement (Cascade Biologics) including, 100 units/ml penicillin, 100 μg/ml streptomycin, and 250 ng/mL amphotericin B. The human embryonic stem cell lines are cultured as previously described. Thomson, et. al., 1998, Science 282:1145-1147. Briefly, cells are grown in 6-well plates precoated with 0.1% porcine gelatin and containing 1.9×10^5 irradiated mouse embryonic fibroblasts (strain CF-1; ATCC) per well. The cells are maintained in medium containing DMEM/F12 (1:1), 20% knock-out serum replacement, non-essential minimal amino acids, L-glutamine (Invitrogen), […], and 4 ng/ml FGF-2 (R&D Systems), and are split with collagenase (1 mg/ml) before the colonies begin to overlap. The cultures are determined to be free of mycoplasma contamination using a PCR-based assay (Roche). […]

Nodal = experiment: Immunohistochemical analysis of Nodal staining in orthotopic C8161 tumors; format: in vivo, mouse; settings: tumors from C8161 treated with anti-Nodal Morpholino, day 17
C8161 melanoma cells = experiment: In vivo tumor cell proliferation-to-apoptosis ratio (Ki67/TUNEL), C8161 derived tumors; settings: C8161 treated before injection into mouse
Description: (A) In vivo tumor formation in a mouse injected with MDA-MB-231 cells pre-exposed for 3 days to either a control matrix (Matrigel) or a matrix conditioned by hESCs (H9 CMTX) (n=10) (B) C81-61 cells, transfected with either an empty vector or a Nodal expression construct (n=5), and (C) MDA-MB-231 cells treated with either MO^Control or MO^Nodal (n=10). […] (D) The ratio of tumor cell proliferation to apoptosis for C8161 and MDA-MB-231 derived tumors, determined by immunohistochemical staining for Ki67 and terminal deoxynucleotidyl transferase biotin-dUTP nick-end labeling (TUNEL). Prior to injection into a mouse, C8161 and MDA-MB-231 cells were cultured for 3 days on control or hESC conditioned (H9 CMTX) matrices, or treated with MO^Nodal to knock down Nodal expression. […] (E) Immunohistochemical analysis of Ki67 expression (red/brown) and TUNEL staining in orthotopic melanoma (C8161) and breast carcinoma (MDA-MB-231) tumors. […] Proliferation is indicated by Ki67 staining and apoptotic nuclei were detected with confocal microscopy as red staining localized to the nuclei of apoptotic C8161 or MDA-MB-231 cells. […]
In order to establish a mechanism by which exposure to the hESC microenvironment abrogates tumorigenicity, the effects of this treatment on the in vivo tumor cell proliferation-to-apoptosis ratio were analyzed. […]

[2] = 250,000 C8161 cells treated with anti-Nodal Morpholino before injection

With “MO^Nodal: FITC-conjugated anti-sense Morpholino to Nodal, 5′-AAGCAGCACCTCCAGCCCTTATATC-3′ [SEQ ID NO: 20] (all phosphorodiamidate morpholino (PMO); FITC conjugated, position not given here)” the “tumorigenicity / tumor formation” value ([1]; listed as MO Nodal) was “reduction in tumor formation”, the “tumorigenicity / tumor formation” value ([1]; listed as MONodal) was “significant reduction” and the “diminution of tumor incidence” value [1, 2] was 30%. The tumor growth [1, 2] was “decrease”, the “Nodal expression in tumors (IHC)” value (Nodal) was “started to regain Nodal expression” and the “ratio of proliferation to apoptosis” value (C8161 melanoma cells) was “decreased”.
